From patent publication US20250388553A1 (Incyte Corporation, priority 2018, published 2025)
pIC50: −log10 of the molar value. Structures can show the parent of a compound that is named as a salt. Where two headings read alike, the source gives them in different places.

Experiments:
[1] = target: PI3Kδ (p1106/p85a) Recombinant Human Protein (Homo sapiens (Human), UniProt O00329); assay: PI3Kδ scintillation proximity assay; format: biochemical
[2] = target: PI3Kγ (p110γ) Recombinant Human Protein (Homo sapiens (Human), UniProt P48736); assay: PI3K-γ scintillation proximity assay; format: biochemical
[3] = test system: Phosphorylated Ribosomal Protein S6 (RPS6) in THP-1 cells; assay: THP-1 RPS6 ELISA assay; format: cell-based, Human; details: Homo sapiens; for pIC50: THP-1 cells, 10 nM MCP-1, phospho-RPS6 ELISA, read-out: PI3Kγ_THP1_RPS6_ELISA IC50
Text: Example A. THP-1 RPS6 ELISA Assay
To measure the Phosphorylated Ribosomal Protein S6 (RPS6) in cell lysates, THP-1 cells (Human Acute Monocytic Leukemia) are purchased from ATCC (Manassas, VA) and maintained in RPMI with 10% FBS (Gibco/Life Technologies, Carlsbad, CA). For the assay, THP-1 cells are serum starved overnight in RPMI, then plated in RPMI (2×10^5 cells/well in […]) into 96-well flat-bottom tissue culture treated plates (Corning, Corning, NY), in the presence or absence of a concentration range of test compounds. Covered plates are incubated for 2 hours at 37° C., 5% CO2 then treated with or without 10 nM MCP-1(MYBioSource, San Diego, CA) for 15 minutes at 37° C., 5% CO2. Plates are centrifuged at 1600 RPM and supernatants are removed. Cells are lysed in Lysis Buffer (Cell Signaling, Danvers, MA) with Protease Inhibitor (Calbiochem/EMD, Germany), PMSF (Sigma, St Louis MO), HALTS (Thermo Fisher, Rockford, IL) for 30 min on wet ice. Cell lysates are frozen at −80° C. before testing. The lysates are tested in the Human/Mouse/Rat Phospho-RPS6 ELISA (R&D Systems, Inc. Minn, MN). The plate is measured using a microplate reader (SpectraMax M5—Molecular Devices, LLC Sunnyvale, CA) set to 450 nm with a wavelength correction of 540. IC50 determination is performed by fitting the curve of inhibitor percent inhibition versus the log of the inhibitor concentration using the GraphPad Prism 5.0 software.
The compounds of the Examples were tested in the assays described in Examples A, B and C and found to have the IC50s are shown in Tables A1, A2, A3 and A4.

[4] = Table A3, scintillation proximity assay, recombinant human PI3Kδ
[5] = Table A3, scintillation proximity assay, recombinant human p110γ
[6] = Table A4, scintillation proximity assay, recombinant human PI3Kδ
[7] = Table A4, scintillation proximity assay, recombinant human p110γ

Chain of PI3Kγ (p110γ) Recombinant Human Protein (P48736 whole entry): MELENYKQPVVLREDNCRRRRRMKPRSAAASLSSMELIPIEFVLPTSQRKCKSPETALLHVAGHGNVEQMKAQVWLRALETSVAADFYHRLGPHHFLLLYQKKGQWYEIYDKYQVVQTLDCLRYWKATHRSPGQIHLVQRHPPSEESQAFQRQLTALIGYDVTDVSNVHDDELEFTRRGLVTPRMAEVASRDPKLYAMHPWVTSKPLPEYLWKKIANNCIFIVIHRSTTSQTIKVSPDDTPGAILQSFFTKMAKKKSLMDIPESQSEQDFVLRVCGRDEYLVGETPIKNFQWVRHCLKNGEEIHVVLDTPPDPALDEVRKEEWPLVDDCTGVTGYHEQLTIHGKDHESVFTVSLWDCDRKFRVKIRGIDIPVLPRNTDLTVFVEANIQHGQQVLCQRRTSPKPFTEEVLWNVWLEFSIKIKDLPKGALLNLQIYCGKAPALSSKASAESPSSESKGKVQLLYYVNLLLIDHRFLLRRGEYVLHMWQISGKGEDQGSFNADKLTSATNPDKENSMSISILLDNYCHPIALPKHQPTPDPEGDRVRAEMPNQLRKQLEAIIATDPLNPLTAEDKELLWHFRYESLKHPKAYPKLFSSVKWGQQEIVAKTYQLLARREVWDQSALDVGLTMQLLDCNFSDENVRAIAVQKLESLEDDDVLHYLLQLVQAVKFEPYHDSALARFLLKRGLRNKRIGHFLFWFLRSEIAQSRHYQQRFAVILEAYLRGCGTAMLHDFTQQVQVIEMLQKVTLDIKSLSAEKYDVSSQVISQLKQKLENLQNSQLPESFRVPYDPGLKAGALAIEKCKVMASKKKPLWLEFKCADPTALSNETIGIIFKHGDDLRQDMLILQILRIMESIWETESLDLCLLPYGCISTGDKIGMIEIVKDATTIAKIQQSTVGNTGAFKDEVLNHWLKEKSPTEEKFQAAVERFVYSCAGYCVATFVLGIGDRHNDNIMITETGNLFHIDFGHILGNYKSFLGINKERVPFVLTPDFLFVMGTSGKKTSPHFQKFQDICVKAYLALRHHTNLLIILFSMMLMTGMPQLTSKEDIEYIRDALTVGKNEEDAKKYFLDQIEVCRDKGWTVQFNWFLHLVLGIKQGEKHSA
Chain of PI3Kδ (p1106/p85a) Recombinant Human Protein (O00329 whole entry): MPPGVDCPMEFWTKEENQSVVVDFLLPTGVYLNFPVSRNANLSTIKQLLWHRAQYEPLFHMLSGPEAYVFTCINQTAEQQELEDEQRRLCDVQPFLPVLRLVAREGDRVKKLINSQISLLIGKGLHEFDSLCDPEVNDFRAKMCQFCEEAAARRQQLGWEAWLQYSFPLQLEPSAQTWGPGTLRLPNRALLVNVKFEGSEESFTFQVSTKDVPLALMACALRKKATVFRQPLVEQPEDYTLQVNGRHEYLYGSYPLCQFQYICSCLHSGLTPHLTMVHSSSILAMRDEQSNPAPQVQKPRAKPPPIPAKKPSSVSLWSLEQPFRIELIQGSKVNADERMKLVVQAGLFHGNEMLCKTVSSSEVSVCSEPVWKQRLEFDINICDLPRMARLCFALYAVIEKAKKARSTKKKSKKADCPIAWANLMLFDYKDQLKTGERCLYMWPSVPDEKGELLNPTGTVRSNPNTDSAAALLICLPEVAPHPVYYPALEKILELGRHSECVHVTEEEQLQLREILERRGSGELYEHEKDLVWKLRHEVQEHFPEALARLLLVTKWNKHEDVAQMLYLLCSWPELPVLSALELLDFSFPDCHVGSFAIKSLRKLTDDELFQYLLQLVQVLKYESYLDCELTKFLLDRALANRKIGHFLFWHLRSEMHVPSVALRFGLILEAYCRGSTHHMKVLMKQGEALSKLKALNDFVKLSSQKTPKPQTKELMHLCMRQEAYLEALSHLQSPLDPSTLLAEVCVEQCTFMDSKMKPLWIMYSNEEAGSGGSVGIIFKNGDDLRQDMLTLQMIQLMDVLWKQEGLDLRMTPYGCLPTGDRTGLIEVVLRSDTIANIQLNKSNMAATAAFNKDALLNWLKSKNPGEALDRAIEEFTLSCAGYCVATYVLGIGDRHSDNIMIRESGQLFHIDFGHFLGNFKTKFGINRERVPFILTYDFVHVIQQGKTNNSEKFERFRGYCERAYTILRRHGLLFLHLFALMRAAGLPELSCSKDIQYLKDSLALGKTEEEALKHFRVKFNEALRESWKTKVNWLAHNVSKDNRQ
Chain of PI3Kδ (p1106/p85a) Recombinant Human Protein (P27986 whole entry partner): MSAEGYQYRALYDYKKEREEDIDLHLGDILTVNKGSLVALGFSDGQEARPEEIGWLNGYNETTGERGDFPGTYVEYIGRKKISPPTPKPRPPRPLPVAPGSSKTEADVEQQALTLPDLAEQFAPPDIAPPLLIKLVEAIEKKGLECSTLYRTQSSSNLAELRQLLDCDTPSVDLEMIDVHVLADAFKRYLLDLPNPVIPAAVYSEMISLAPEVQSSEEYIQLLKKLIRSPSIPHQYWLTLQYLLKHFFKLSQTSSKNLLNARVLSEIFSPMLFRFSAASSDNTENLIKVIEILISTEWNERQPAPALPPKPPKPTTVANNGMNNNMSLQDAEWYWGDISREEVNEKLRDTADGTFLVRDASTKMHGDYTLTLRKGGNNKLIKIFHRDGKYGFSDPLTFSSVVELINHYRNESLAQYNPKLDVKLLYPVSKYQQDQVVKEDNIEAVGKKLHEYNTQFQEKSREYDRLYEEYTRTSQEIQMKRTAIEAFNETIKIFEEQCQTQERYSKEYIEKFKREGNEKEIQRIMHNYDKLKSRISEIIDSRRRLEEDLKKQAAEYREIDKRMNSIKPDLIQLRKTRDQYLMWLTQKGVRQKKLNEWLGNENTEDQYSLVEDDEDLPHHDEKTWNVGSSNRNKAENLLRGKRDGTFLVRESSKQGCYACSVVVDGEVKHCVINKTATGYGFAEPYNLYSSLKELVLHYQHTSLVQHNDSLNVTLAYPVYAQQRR

Row | Compound | pIC50 [1, 6] | pIC50 [2, 7] | pIC50 ([3]; Table A4) | other results
1 | Cc1ccc(C(O)(C(N)=O)C(F)(F)F)cc1-c1cnc(N)c(-c2ccc(B(O)O)cc2)n1 (stereo not drawn) [Example 97, (4-(3-Amino-6-(5-(3-amino-1,1,1-trifluoro-2-hydroxy-3-oxopropan-2-yl)-2-methylphenyl)pyrazin-2-yl)phenyl)boronic Acid] |  |  |  | pIC50 [1, 4]: > 7.00; pIC50 [2, 5]: > 7.00; pIC50 ([3]; Table A3): 6.30 to 7.00
2 | Cc1ccc(C(O)(CNC=O)C(F)(F)F)cc1-c1cnc(N)c(-c2cn[nH]c2)n1 (stereo not drawn) [Example 103, N-(2-(3-(5-amino-6-(1H-pyrazol-4-yl)pyrazin-2-yl)-4-methylphenyl)-3,3,3-trifluoro-2-hydroxypropyl)formamide trifluoroacetate] |  |  |  | pIC50 [1, 4]: 6.30 to 7.00; pIC50 [2, 5]: > 7.00; pIC50 ([3]; Table A3): 6.30 to 7.00
3 | Cc1ccc(C(O)(C(N)=O)C(F)(F)F)cc1-c1cnc(N)c(N2CCN(C3CC3)C(=O)C2)n1 (stereo not drawn) [Example 112, 2-(3-(5-amino-6-(4-cyclopropyl-3-oxopiperazin-1-yl)pyrazin-2-yl)-4-methylphenyl)-3,3,3-trifluoro-2-hydroxypropanamide Trifluoroacetate] | 6.30 to 7.00 | > 7.00 | 6.30 to 7.00 | 
4 | Cc1ccc(C(O)(C(N)=O)C(F)(F)F)cc1-c1cnc(N)c(N2CCN(C(C)(C)C)C(=O)C2)n1 (stereo not drawn) [Example 113, 2-(3-(5-amino-6-(4-tert-butyl-3-oxopiperazin-1-yl)pyrazin-2-yl)-4-methylphenyl)-3,3,3-trifluoro-2-hydroxypropanamide trifluoroacetate] | 6.30 to 7.00 | > 7.00 | 6.30 to 7.00 | 
5 | Cc1ccc(C(O)(C(N)=O)C(F)(F)F)cc1-c1cnc(N)c(N2CC(=O)N(c3ccc(O)cc3)[C@@H](CO)C2)n1 (stereo partly drawn) [Example 124, 2-(3-(5-amino-6-((R)-3-(hydroxymethyl)-4-(4-hydroxyphenyl)-5-oxopiperazin-1-yl)pyrazin-2-yl)-4-methylphenyl)-3,3,3-trifluoro-2-hydroxypropanamide trifluoroacetate] | 6.30 to 7.00 |  | 6.00 to 6.30 | pIC50 [2]: > 7.00
6 | Cc1ccc(C(O)(C(N)=O)C(F)(F)F)cc1-c1cnc(N)c(N2CCN(CCC#N)CC2)n1 (stereo not drawn) [Example 125, 2-(3-(5-amino-6-(4-(2-cyanoethyl)piperazin-1-yl)pyrazin-2-yl)-4-methylphenyl)-3,3,3-trifluoro-2-hydroxypropanamide trifluoroacetate] |  |  |  | pIC50 [1]: > 7.00; pIC50 [2]: > 7.00; IC50 ([3]; THP-1, read-out: PI3Kγ_THP1_RPS6_ELISA IC50 (nM)): 100 to 500 nM

More lines, main results first:

Row | pIC50 [1, 6] | pIC50 [2, 7] | pIC50 ([3]; Table A4) | Compound | other results
7 | 6.30 to 7.00 | > 7.00 | 6.00 to 6.30 | Cc1ccc(C(O)(C(N)=O)C(F)(F)F)cc1-c1cnc(N)c(N2CCN(c3ccccc3C)CC2)n1 (stereo not drawn) [Example 118, 2-(3-(5-amino-6-(4-o-tolylpiperazin-1-yl)pyrazin-2-yl)-4-methylphenyl)-3,3,3-trifluoro-2-hydroxypropanamide trifluoroacetate] | 
8 | > 7.00 | > 7.00 | 6.30 to 7.00 | Cc1ccc(C(O)(C(N)=O)C(F)(F)F)cc1-c1cnc(N)c(N2CCN(c3ccc(C#N)cc3)CC2)n1 (stereo not drawn) [Example 123, 2-(3-(5-amino-6-(4-(4-cyanophenyl)piperazin-1-yl)pyrazin-2-yl)-4-methylphenyl)-3,3,3-trifluoro-2-hydroxypropanamide trifluoroacetate] | 
9 | 6.30 to 7.00 | > 7.00 | 6.00 to 6.30 | CCOc1ccccc1N1CCN(c2nc(-c3cc(C(O)(C(N)=O)C(F)(F)F)ccc3C)cnc2N)CC1 (stereo not drawn) [Example 129, 2-(3-(5-amino-6-(4-(2-ethoxyphenyl)piperazin-1-yl)pyrazin-2-yl)-4-methylphenyl)-3,3,3-trifluoro-2-hydroxypropanamide trifluoroacetate] | 
